Source: patent US20140011749A1, “KETOGENIC DIET COMPOSITION FOR THE TREATMENT OF CHEMO THERAPY AND/OR RADIATION THERAPY PATIENTS” (priority 2011, published 2014)

Test system: GL261-luc cells
Assay: GL261-luc intracranial malignant glioma mouse model: survival and bioluminescence
Assay type: in vivo, albino C57BL/6 mice
Conditions: TMZ (5×50 mg/kg), animals maintained on SD
Method: GL261-luc cells expressing luciferase were stereotactically implanted into the right frontal lobe of immune-competent albino C57BL/6 mice (NCI, Frederick, Md.). Following intracranial implantation, animals were fed standard rodent chow (SD) and were randomized to treatment groups on day 3 (SD vs KetoCal® with and without radiation or TMZ) based on bioluminescent signal (IVIS® Spectrum in vivo imaging system, Caliper Life Sciences, Hopkinton, Mass.). […] Mice were maintained on a 12 hour light/dark cycle and KetoCal® or SD was available ad libitum.

Compound Cn1nnc2c(C(N)=O)ncn2c1=O [TMZ, temozolomide] has a median survival of 28 days.
